Experimental data: ChEMBL document CHEMBL1201862, “PubChem BioAssay data set” (2004)
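Cells were grown in 96-well plates and exposed to each compound for 48 hours at five concentrations; endpoints were interpolated linearly between bracketing concentrations, or set to the highest concentration if not reached. The concentration for 50% growth inhibition is given as GI50.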 Calls of active or inactive are those of the source. No stated cut-off is given here; in the data, active = GI50 up to about 1.1 µM and inactive = higher.

Assays:
Assay in all cases: NCI anticancer screen, dose series, 48 h
MDA-N = test system: MDA-N
SF-268 = test system: SF-268
T47D = test system: T47D
MDA-MB-231 = test system: MDA-MB-231
OVCAR-3 = test system: OVCAR-3
M14 = test system: M14
MOLT-4 = test system: MOLT-4
NCI-H23 = test system: NCI-H23
SF-295 = test system: SF-295
LOX IMVI = test system: LOX IMVI
U-251 = test system: U-251
K562 = test system: K562
Hs-578T = test system: Hs-578T
SW-620 = test system: SW-620
NCI-H226 = test system: NCI-H226
IGROV-1 = test system: IGROV-1
Malme-3M = test system: Malme-3M
786-0 = test system: 786-0
NCI-H522 = test system: NCI-H522
SK-MEL-5 = test system: SK-MEL-5

Compound	GI50 (MDA-N)	GI50 (SF-268)	GI50 (T47D)	GI50 (MDA-MB-231)	GI50 (OVCAR-3)	GI50 (M14)	GI50 (MOLT-4)	GI50 (NCI-H23)	GI50 (SF-295)	GI50 (LOX IMVI)	GI50 (U-251)	GI50 (K562)	GI50 (Hs-578T)	GI50 (SW-620)	GI50 (NCI-H226)	GI50 (IGROV-1)	GI50 (Malme-3M)	GI50 (786-0)	GI50 (NCI-H522)	GI50 (SK-MEL-5)
O=C1NC2c3c(I)sc(I)c3/C(=N\O)C2O1 (stereo not drawn)	33.6 µM (inactive)	24.3 µM (inactive)	35.2 µM (inactive)	24 µM (inactive)	18.2 µM (inactive)	36.8 µM (inactive)	28.2 µM (inactive)	23.2 µM (inactive)	45.6 µM (inactive)	29.4 µM (inactive)	23.1 µM (inactive)	19.9 µM (inactive)	11.5 µM (inactive)	19 µM (inactive)	31 µM (inactive)	19.8 µM (inactive)	25.1 µM (inactive)	24.4 µM (inactive)		
O=C(CCc1cc(O)cc(O)c1)NCCc1cc(O)cc(O)c1	> 100 µM (inactive)	> 100 µM (inactive)	> 100 µM (inactive)	> 100 µM (inactive)	> 100 µM (inactive)	> 100 µM (inactive)	> 100 µM (inactive)	> 100 µM (inactive)	> 100 µM (inactive)	> 100 µM (inactive)	> 100 µM (inactive)	> 100 µM (inactive)	> 100 µM (inactive)	> 100 µM (inactive)	> 100 µM (inactive)	> 100 µM (inactive)		> 100 µM (inactive)	> 100 µM (inactive)	> 100 µM (inactive)
CCN(CCCl)c1cccc(NC(=O)c2ccc(C(=O)Nc3cccc(CN(C)C)c3)cc2)c1	0.05 µM (active)	0.0379 µM (active)	0.0412 µM (active)	0.195 µM (active)		0.204 µM (active)	0.0246 µM (active)	0.0935 µM (active)	0.125 µM (active)	0.0277 µM (active)	0.0349 µM (active)	0.0422 µM (active)	0.0618 µM (active)	0.034 µM (active)	0.219 µM (active)	0.0344 µM (active)	0.049 µM (active)	0.0239 µM (active)	< 0.01 µM (active)	0.0118 µM (active)
Cc1ccc(N2C(=O)C(=O)N(/N=C3\C(=O)Nc4ccccc43)C2=S)cc1	59.7 µM (inactive)	58.5 µM (inactive)	38.2 µM (inactive)	> 100 µM (inactive)	64.4 µM (inactive)	> 100 µM (inactive)	28.8 µM (inactive)	86.7 µM (inactive)	54.1 µM (inactive)	31.6 µM (inactive)	26.3 µM (inactive)	37.1 µM (inactive)	> 100 µM (inactive)	44.2 µM (inactive)		95.5 µM (inactive)	> 100 µM (inactive)	46.6 µM (inactive)	63.2 µM (inactive)	41.2 µM (inactive)
CNC(=O)Nn1c(SC)nc2ccccc21	> 100 µM (inactive)	> 100 µM (inactive)	> 100 µM (inactive)	> 100 µM (inactive)		> 100 µM (inactive)	> 100 µM (inactive)	> 100 µM (inactive)	> 100 µM (inactive)	> 100 µM (inactive)	> 100 µM (inactive)	> 100 µM (inactive)	> 100 µM (inactive)	> 100 µM (inactive)	> 100 µM (inactive)	> 100 µM (inactive)	> 100 µM (inactive)	> 100 µM (inactive)	> 100 µM (inactive)	> 100 µM (inactive)
C/C(=N\NC(=O)c1ccccc1O)c1cccc(/C(C)=N/NC(=O)c2ccccc2O)n1	> 57 µM (inactive)	3.41 µM (inactive)	4.24 µM (inactive)	19.4 µM (inactive)		12.6 µM (inactive)	0.955 µM (active)		12.5 µM (inactive)	1.7 µM (inactive)		15 µM (inactive)	> 65.2 µM (inactive)	5.74 µM (inactive)			10.6 µM (inactive)	5.32 µM (inactive)		6.97 µM (inactive)
Cc1nc2sccn2c1/C=C1/C(=O)Nc2cccc(Cl)c21	12.6 µM (inactive)	> 100 µM (inactive)	38.6 µM (inactive)	50.4 µM (inactive)	> 100 µM (inactive)	> 100 µM (inactive)	> 100 µM (inactive)	> 100 µM (inactive)	51.6 µM (inactive)	> 100 µM (inactive)	> 100 µM (inactive)	45.3 µM (inactive)	> 100 µM (inactive)	41.4 µM (inactive)		53.6 µM (inactive)	> 100 µM (inactive)	> 100 µM (inactive)	45.8 µM (inactive)	45.7 µM (inactive)
Cc1n[nH]c(=S)n1/N=C/c1ccc(-c2ccc(Cl)cc2)o1	> 100 µM (inactive)	29.2 µM (inactive)	> 100 µM (inactive)	73.5 µM (inactive)	> 100 µM (inactive)	> 100 µM (inactive)	> 100 µM (inactive)	39.6 µM (inactive)	67.8 µM (inactive)	> 100 µM (inactive)	31.6 µM (inactive)	> 100 µM (inactive)	37.5 µM (inactive)	> 100 µM (inactive)	> 100 µM (inactive)	> 100 µM (inactive)		> 100 µM (inactive)	> 100 µM (inactive)	> 100 µM (inactive)
Cn1c(=O)c2c(nc3n(CCCCl)c(=O)ccn23)n(C)c1=O	> 100 µM (inactive)	> 100 µM (inactive)	> 100 µM (inactive)	> 100 µM (inactive)	> 100 µM (inactive)	> 100 µM (inactive)	> 100 µM (inactive)	> 100 µM (inactive)	> 100 µM (inactive)	> 100 µM (inactive)	> 100 µM (inactive)	> 100 µM (inactive)	> 100 µM (inactive)	> 100 µM (inactive)	> 100 µM (inactive)	> 100 µM (inactive)		> 100 µM (inactive)	> 100 µM (inactive)	> 100 µM (inactive)
Cc1ccc(-c2cc(-c3c(C)nn(C)c(=O)c3N)n[nH]2)cc1	> 100 µM (inactive)	> 100 µM (inactive)	53.5 µM (inactive)	> 100 µM (inactive)	88.3 µM (inactive)	> 100 µM (inactive)	> 100 µM (inactive)	> 100 µM (inactive)	> 100 µM (inactive)	> 100 µM (inactive)	> 100 µM (inactive)	> 100 µM (inactive)	> 100 µM (inactive)	> 100 µM (inactive)	> 100 µM (inactive)	> 100 µM (inactive)	> 100 µM (inactive)	> 100 µM (inactive)		> 100 µM (inactive)
COC(=O)C1=C(O)C(C(=O)OC)[C@]2(O)[C@H](C(=O)OC)[C@H]1C[C@@H](c1ccc(Cl)cc1Cl)[C@H]2C(=O)OC (stereo partly drawn)	2.74 µM (inactive)	7.62 µM (inactive)	4.83 µM (inactive)	19.5 µM (inactive)	5.14 µM (inactive)	6.24 µM (inactive)	2.48 µM (inactive)	4.34 µM (inactive)	7.46 µM (inactive)	5.92 µM (inactive)	2.72 µM (inactive)	3.47 µM (inactive)	15.5 µM (inactive)	6.01 µM (inactive)	2.91 µM (inactive)	6.3 µM (inactive)	6.95 µM (inactive)	26.3 µM (inactive)		4.91 µM (inactive)
